Reference: publication PMC10337980 (PLOS Genetics, 2023)
Where a chain is given by its changes, count along the chain named.

Tests used:
Assay type in all cases: cell-based
LsRDL [1] = molecular target: T1, LsRDL (Laodelphax striatellus, UniProt Q0ECT5); assay: two-electrode voltage clamp, inhibition of GABA-induced current in Xenopus oocytes
T1 construct: homomeric
T1 sequence (Q0ECT5 23-487): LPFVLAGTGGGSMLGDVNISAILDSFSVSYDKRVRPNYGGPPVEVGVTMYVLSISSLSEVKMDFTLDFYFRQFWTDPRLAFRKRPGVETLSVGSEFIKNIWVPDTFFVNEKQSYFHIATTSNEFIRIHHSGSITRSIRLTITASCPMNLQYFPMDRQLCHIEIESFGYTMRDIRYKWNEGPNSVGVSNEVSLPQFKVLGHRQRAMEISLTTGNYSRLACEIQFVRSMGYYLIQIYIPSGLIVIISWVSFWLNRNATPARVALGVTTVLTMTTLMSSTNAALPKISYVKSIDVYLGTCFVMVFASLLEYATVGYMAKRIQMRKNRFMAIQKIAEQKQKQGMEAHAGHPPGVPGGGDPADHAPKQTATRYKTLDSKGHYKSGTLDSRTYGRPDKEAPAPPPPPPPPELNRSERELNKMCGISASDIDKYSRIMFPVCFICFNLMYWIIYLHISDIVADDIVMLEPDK

AmRDL [2] = molecular target: T2, AmRDL (Apis mellifera, UniProt A0A168SJP2); assay: as above
T2 construct: homomeric
T2 sequence (A0A168SJP2 19-477): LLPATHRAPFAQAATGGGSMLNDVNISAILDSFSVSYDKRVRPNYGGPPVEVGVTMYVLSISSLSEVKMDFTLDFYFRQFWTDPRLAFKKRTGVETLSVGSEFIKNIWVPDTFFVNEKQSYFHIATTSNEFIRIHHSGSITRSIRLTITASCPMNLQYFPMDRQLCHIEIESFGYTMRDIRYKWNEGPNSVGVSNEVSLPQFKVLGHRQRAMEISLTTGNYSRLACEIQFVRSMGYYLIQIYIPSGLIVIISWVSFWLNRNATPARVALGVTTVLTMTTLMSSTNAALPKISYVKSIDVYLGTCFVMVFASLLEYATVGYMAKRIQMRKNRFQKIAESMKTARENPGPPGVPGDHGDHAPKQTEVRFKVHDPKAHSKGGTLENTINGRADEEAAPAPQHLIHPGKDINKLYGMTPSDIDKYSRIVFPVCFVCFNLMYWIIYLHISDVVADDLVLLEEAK

CsRDL [3] = molecular target: T3, CsRDL (Chilo suppressalis, UniProt E2IKR3); assay: as above
T3 construct: homomeric channel
T3 sequence (E2IKR3 27-496): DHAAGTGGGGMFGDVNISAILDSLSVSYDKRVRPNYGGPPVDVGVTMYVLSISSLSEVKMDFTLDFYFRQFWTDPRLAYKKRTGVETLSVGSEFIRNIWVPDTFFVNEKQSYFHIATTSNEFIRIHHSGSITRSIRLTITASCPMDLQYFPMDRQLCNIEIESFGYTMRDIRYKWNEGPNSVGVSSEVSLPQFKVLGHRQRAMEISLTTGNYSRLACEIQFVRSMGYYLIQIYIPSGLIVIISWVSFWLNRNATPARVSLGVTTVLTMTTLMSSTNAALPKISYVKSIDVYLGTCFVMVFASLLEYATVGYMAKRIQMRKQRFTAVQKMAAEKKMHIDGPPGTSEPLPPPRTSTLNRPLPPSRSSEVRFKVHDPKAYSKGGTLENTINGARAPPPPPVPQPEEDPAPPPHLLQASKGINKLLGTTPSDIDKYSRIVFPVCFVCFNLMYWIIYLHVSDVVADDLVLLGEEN

DmRDL [4] = molecular target: T4, DmRDL (Drosophila melanogaster, UniProt P25123, G335M); assay: as above
T4 construct: gene Rdl; homomeric
T4 sequence (P25123 45-606 G335M): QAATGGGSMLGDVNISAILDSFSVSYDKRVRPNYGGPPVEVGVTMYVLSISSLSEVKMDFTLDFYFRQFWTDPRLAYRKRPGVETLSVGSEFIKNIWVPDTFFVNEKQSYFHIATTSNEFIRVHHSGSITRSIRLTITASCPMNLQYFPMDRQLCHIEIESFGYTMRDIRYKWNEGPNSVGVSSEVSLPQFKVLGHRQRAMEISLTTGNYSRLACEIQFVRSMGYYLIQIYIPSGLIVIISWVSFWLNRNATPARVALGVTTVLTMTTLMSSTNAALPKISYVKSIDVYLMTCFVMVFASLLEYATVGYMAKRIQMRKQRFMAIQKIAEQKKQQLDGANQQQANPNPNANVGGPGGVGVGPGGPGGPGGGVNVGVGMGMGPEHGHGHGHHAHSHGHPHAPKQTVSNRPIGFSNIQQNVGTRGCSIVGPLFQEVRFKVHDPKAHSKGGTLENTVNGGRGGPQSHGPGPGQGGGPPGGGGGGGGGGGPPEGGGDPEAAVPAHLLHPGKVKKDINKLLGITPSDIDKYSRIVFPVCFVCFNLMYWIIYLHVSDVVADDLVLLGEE

DmRDL [5] = molecular target: T5, DmRDL (Drosophila melanogaster, UniProt P25123); assay: as above
T5 construct: gene Rdl; homomeric
T5 sequence (P25123 45-606): T4 sequence (P25123 45-606 G335M) with M291G

TuRDL [6] = molecular target: T6, TuRDL (Tetranychus urticae, UniProt E3WEB3); assay: as above
T6 construct: gene Rdl; homomeric
T6 sequence (E3WEB3 18-827): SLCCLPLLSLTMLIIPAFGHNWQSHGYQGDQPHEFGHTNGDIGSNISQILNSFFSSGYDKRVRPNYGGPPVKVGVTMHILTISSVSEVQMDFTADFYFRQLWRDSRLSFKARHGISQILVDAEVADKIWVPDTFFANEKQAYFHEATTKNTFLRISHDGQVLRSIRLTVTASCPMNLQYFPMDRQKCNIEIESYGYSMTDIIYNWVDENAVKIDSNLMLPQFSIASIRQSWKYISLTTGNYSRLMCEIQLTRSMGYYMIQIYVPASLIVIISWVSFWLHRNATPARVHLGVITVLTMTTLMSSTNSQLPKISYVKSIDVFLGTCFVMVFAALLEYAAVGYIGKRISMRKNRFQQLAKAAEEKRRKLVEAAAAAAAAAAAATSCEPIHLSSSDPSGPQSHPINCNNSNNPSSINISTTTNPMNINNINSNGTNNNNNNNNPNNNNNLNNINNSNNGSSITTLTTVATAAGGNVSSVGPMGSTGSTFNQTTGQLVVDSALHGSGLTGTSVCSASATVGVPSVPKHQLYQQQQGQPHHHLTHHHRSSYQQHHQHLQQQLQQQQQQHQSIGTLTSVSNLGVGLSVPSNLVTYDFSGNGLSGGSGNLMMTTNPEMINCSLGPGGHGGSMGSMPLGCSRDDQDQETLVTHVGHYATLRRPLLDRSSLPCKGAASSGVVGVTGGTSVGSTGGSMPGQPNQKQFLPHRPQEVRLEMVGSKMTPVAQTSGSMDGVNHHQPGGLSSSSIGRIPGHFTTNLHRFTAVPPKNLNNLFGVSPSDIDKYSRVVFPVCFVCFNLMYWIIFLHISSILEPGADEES

AmRDL [7] = molecular target: T2, AmRDL; assay: two-electrode voltage clamp, GABA-induced current in Xenopus oocytes
CsRDL [8] = molecular target: T3, CsRDL; assay: as above
TuRDL [9] = molecular target: T6, TuRDL; assay: as above
LsRDL [10] = molecular target: T1, LsRDL; assay: as above

| Structure (SMILES) | IC50 (LsRDL [1]) | IC50 (AmRDL [2]) | IC50 (CsRDL [3]) | IC50 (DmRDL [4]) | IC50 (DmRDL [5]) | IC50 (TuRDL [6]) | EC50 (AmRDL [7]) | EC50 (CsRDL [8]) | EC50 (TuRDL [9]) | EC50 (LsRDL [10]) |
| --- | --- | --- | --- | --- | --- | --- | --- | --- | --- | --- |
| Cc1cc(C2=NOC(c3cc(Cl)cc(Cl)c3)(C(F)(F)F)C2)ccc1C(=O)NCC(=O)NCC(F)(F)F (centres unmarked) [fluralaner] | 3.27 nM | 9.38 nM | 4.2 nM | > 10000 nM | 6.96 nM | 2.53 nM |  |  |  |  |
| N#Cc1nn(-c2c(Cl)cc(C(F)(F)F)cc2Cl)c(N)c1[S+]([O-])C(F)(F)F (centres unmarked) [fipronil] |  |  | 10 nM |  |  |  |  |  |  |  |
| NCCCC(=O)O [GABA] |  |  |  |  |  |  | 13400 nM | 18100 nM | 295000 nM | 31900 nM |
